Laboratory results: PubChem BioAssay AID1963843 (Molecular Pharmacology Branch, DTP, NCI, 2024)

Tested on: 616215-338-R-J1-PDC complex spheroid viability
Experiment: Anticancer human tumor 616215-338-R-J1-PDC patient-derived colon adenocarcinoma cell line growth inhibition [POLQ]
Settings: for IC50: curve of first compound; for viability, T/C: stronger effect = lower value
Protocol: Multicellular complex tumor spheroid response to Polymerase (POL) inhibitors (novobiocin, ART-558, RP6685) in combination with a variety of drugs and investigational agents in selected tumor cell lines
The POL inhibitors (novobiocin, ART-558, and RP6685) were evaluated both individually and in combination with standard of care and investigational anticancer small molecules within a complex spheroid model of solid tumors. . Complex spheroids include a stromal component modeled by human endothelial cells (HUVEC) and fibroblasts modeled by human mesenchymal stem cells (MSCs). The concentration ranges selected for each drug and investigational agent were based upon clinically achievable concentrations if the clinical Cmax of the agent was known.
Compounds. The drugs and investigational agents: novobiocin (NSC847541), ART-558 (NSC835418), RP-6685 (NSC848927), peposertib (NSC802822), ceralasertib (NSC780249), elimusertib (NSC800525), camonsertib (NSC841442), AZD-1390 (NSC803789), olaparib (NSC753686), talazoparib (NSC767125), rucaparib (NSC756644), sotorasib (NSC818433), MRTX-1133 (NSC836407), SN-38 (NSC673596), topotecan (NSC609699), epotoside (NSC141540), doxorubicin (NSC123127), gemcitabine (NSC613327), 5-fluorouracil (NSC19893), paclitaxel (NSC125973), vemurafenib (NSC761431), MSA-2 (NSC828583), SN-011 (NSC837082), adavosertib (NSC754352), prexasertib (NSC758257), carboplatin (NSC241240) and oxaliplatin (NSC266046), were obtained from the National Cancer Institute (NCI) Developmental Therapeutics Program Chemical Repository (21). The FDA-approved anticancer drug set is available from the Developmental Therapeutics Program at https://dtp.cancer.gov/organization/dscb/obtaining/. […] The stock solutions were prepared in dimethyl sulfoxide (DMSO, Sigma-Aldrich, St. Louis, MO, cat. D2650), except for the platinum compounds which were prepared in saline (Quality Biological, Gaithersburg, MD, cat. 114-055-101), at 800-fold the tested concentration and stored at -70 degrees C prior to their use. All drugs and investigational agents were tested over a range starting from a high concentration at or near the clinical Cmax and decreasing in half-log increments. If the clinical Cmax for an agent had not been determined, the highest concentration tested was 10 microM, except for SN-38, which was tested at a high concentration of 1 microM.
Cell Culture. All cells were maintained in an incubator at 37 degrees C and 5% CO2 with 95% humidity. The PDC lines were cultured according to standard operating procedures established by the NCI PDMR (https://pdmr.cancer.gov). Table 3 of the manuscript, lists the cell lines along with the number of the three cell types plated to form the mct-spheroids and media for tumor cell growth. After thawing, all PDC lines, except 997537-175-T-J1-PDC and 415267-285-R-J2-PDC, were cultured in Matrigel-coated flasks prepared with a working solution of 1X Ham's F-12 nutrient mix, without supplementation (Thermo Fisher Scientific, cat. 11765054), 100 U/mL penicillin-streptomycin (Thermo Fisher Scientific, cat. 15140122), and 2.5% Matrigel (Corning Inc., Corning, NY, cat. 354248) for the first three passages. The two PDC lines 997537-175-T-J1-PDC and 415267-285-R-J2-PDC were cultured on uncoated flasks. The 857933-349-R-J2-PDC line was cultured in 6C/Colon 1B media containing advanced DMEM/F-12 (Thermo Fisher Scientific, cat. 12634028), 10 mM HEPES (Thermo Fisher Scientific, cat. 15630080), 1X GlutaMAX supplement (Thermo Fisher Scientific, cat. 35050061), 0.1 mg/mL primocin (InvivoGen, San Diego, CA, cat. ant-pm-2), 10% defined fetal bovine serum, heat inactivated (HyClone Laboratories Inc., Logan, UT, cat. SH30070.03HI), 50% L-WRN conditioned media (ATCC, cat. CRL-3276), 1.25 mM N-Acetyl-L-cysteine (Sigma-Aldrich, cat. A9165), 10 mM nicotinamide (Sigma-Aldrich, cat. N0636), 1X B-27 supplement (Thermo Fisher Scientific, cat. 17504044), 1X N-2 supplement (Thermo Fisher Scientific, cat. […]

[1] = second compound 0.0316 µM, first compound 0.0316 µM
[2] = second compound 0.0316 µM, first compound 0.1 µM
[3] = second compound 0.0316 µM, first compound 0.316 µM
[4] = second compound 0.0316 µM, first compound 1 µM
[5] = second compound 0.0316 µM, first compound 3.16 µM
[6] = second compound 0.0316 µM, first compound 10 µM
[7] = second compound 0.1 µM, first compound 0.0316 µM
[8] = second compound 0.1 µM, first compound 0.1 µM
[9] = second compound 0.1 µM, first compound 0.316 µM
[10] = second compound 0.1 µM, first compound 1 µM
[11] = second compound 0.1 µM, first compound 3.16 µM
[12] = second compound 0.1 µM, first compound 10 µM
[13] = second compound 0.316 µM, first compound 0.0316 µM
[14] = second compound 0.316 µM, first compound 0.1 µM
[15] = second compound 0.316 µM, first compound 0.316 µM
[16] = second compound 0.316 µM, first compound 1 µM
[17] = second compound 0.316 µM, first compound 3.16 µM
[18] = second compound 0.316 µM, first compound 10 µM
[19] = second compound 1 µM, first compound 0.0316 µM
[20] = second compound 1 µM, first compound 0.1 µM
[21] = second compound 1 µM, first compound 0.316 µM
[22] = second compound 1 µM, first compound 1 µM
[23] = second compound 1 µM, first compound 3.16 µM
[24] = second compound 1 µM, first compound 10 µM
[25] = second compound 3.16 µM, first compound 0.0316 µM
[26] = second compound 3.16 µM, first compound 0.1 µM
[27] = second compound 3.16 µM, first compound 0.316 µM
[28] = second compound 3.16 µM, first compound 1 µM
[29] = second compound 3.16 µM, first compound 3.16 µM
[30] = second compound 3.16 µM, first compound 10 µM
[31] = second compound 10 µM, first compound 0.0316 µM
[32] = second compound 10 µM, first compound 0.1 µM
[33] = second compound 10 µM, first compound 0.316 µM
[34] = second compound 10 µM, first compound 1 µM
[35] = second compound 10 µM, first compound 3.16 µM
[36] = second compound 10 µM, first compound 10 µM
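Further: spheroids exposed to compounds for one week before readout.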
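Wherever viability, T/C is given: percent viability relative to DMSO vehicle wells taken as 100%.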

## C=CC(=O)N1CCN(c2nc(=O)n(-c3c(C)ccnc3C(C)C)c3nc(-c4c(O)cccc4F)c(F)cc23)C(C)C1 (centres undefined) + Cc1cccc(N(C)C(=O)C2C(O)CCN2c2nc(C)cc(C(F)(F)F)c2C#N)c1
Second compound 0.0316 µM
  IC50: > 10 µM
Second compound 0.1 µM
  IC50: > 10 µM
Second compound 0.316 µM
  IC50: > 10 µM
Second compound 1 µM
  IC50: > 10 µM
Second compound 3.16 µM
  IC50: > 10 µM
Second compound 10 µM
  IC50: > 10 µM
[1]
  viability, T/C: 102%
[2]
  viability, T/C: 95.3%
[3]
  viability, T/C: 95.8%
[4]
  viability, T/C: 109%
[5]
  viability, T/C: 100%
[6]
  viability, T/C: 98.3%
[7]
  viability, T/C: 95.6%
[8]
  viability, T/C: 95.3%
[9]
  viability, T/C: 88.2%
[10]
  viability, T/C: 105%
[11]
  viability, T/C: 104%
[12]
  viability, T/C: 90.3%
[13]
  viability, T/C: 93.8%
[14]
  viability, T/C: 99.2%
[15]
  viability, T/C: 99.6%
[16]
  viability, T/C: 104%
[17]
  viability, T/C: 108%
[18]
  viability, T/C: 97%
[19]
  viability, T/C: 96.7%
[20]
  viability, T/C: 86%
[21]
  viability, T/C: 88.1%
[22]
  viability, T/C: 101%
[23]
  viability, T/C: 105%
[24]
  viability, T/C: 86.2%
[25]
  viability, T/C: 96.6%
[26]
  viability, T/C: 122%
[27]
  viability, T/C: 103%
[28]
  viability, T/C: 101%
[29]
  viability, T/C: 97.6%
[30]
  viability, T/C: 91.6%
[31]
  viability, T/C: 105%
[32]
  viability, T/C: 99.6%
[33]
  viability, T/C: 90.9%
[34]
  viability, T/C: 104%
[35]
  viability, T/C: 95.3%
[36]
  viability, T/C: 73%

## CC(C)n1c(=O)n(C)c2cnc3cc(F)c(-c4ccc(OCCCN5CCCCC5)nc4)cc3c21 + Cc1cccc(N(C)C(=O)C2C(O)CCN2c2nc(C)cc(C(F)(F)F)c2C#N)c1
Second compound 0.0316 µM
  IC50: > 10 µM
Second compound 0.1 µM
  IC50: > 10 µM
Second compound 0.316 µM
  IC50: > 10 µM
Second compound 1 µM
  IC50: > 10 µM
Second compound 3.16 µM
  IC50: > 10 µM
Second compound 10 µM
  IC50: > 10 µM
[1]
  viability, T/C: 95.4%
[2]
  viability, T/C: 98.2%
[3]
  viability, T/C: 99.1%
[4]
  viability, T/C: 111%
[5]
  viability, T/C: 108%
[6]
  viability, T/C: 114%
[7]
  viability, T/C: 109%
[8]
  viability, T/C: 113%
[9]
  viability, T/C: 106%
[10]
  viability, T/C: 102%
[11]
  viability, T/C: 105%
[12]
  viability, T/C: 105%
[13]
  viability, T/C: 102%
[14]
  viability, T/C: 97.8%
[15]
  viability, T/C: 94.5%
[16]
  viability, T/C: 107%
[17]
  viability, T/C: 117%
[18]
  viability, T/C: 103%
[19]
  viability, T/C: 101%
[20]
  viability, T/C: 99.8%
[21]
  viability, T/C: 102%
[22]
  viability, T/C: 117%
[23]
  viability, T/C: 114%
[24]
  viability, T/C: 113%
[25]
  viability, T/C: 105%
[26]
  viability, T/C: 101%
[27]
  viability, T/C: 108%
[28]
  viability, T/C: 114%
[29]
  viability, T/C: 108%
[30]
  viability, T/C: 102%
[31]
  viability, T/C: 108%
[32]
  viability, T/C: 114%
[33]
  viability, T/C: 105%
[34]
  viability, T/C: 109%
[35]
  viability, T/C: 108%
[36]
  viability, T/C: 95.4%
